Measured values taken from US7022716B2, “Cyclic amine phenyl beta-3 adrenergic receptor agonists” (Wyeth, priority 2000, dated 2006).

These molecules were tested against T1, human β3 adrenergic receptor (Homo sapiens, UniProt P13945) (assay: cAMP (SPA) response in CHO cells transfected with human β3 adrenergic receptor). Conditions: maximal response relative to maximal response of isoproterenol at 10^-5 M.
T1 construct: Full length β3 AR clones (402 amino acids) containing the last 6 amino acids of hβ3-AR are prepared; expressed in transfected cells; host or cells: CHO (Chinese hamster ovary) cells
T1 sequence (P13945 whole entry): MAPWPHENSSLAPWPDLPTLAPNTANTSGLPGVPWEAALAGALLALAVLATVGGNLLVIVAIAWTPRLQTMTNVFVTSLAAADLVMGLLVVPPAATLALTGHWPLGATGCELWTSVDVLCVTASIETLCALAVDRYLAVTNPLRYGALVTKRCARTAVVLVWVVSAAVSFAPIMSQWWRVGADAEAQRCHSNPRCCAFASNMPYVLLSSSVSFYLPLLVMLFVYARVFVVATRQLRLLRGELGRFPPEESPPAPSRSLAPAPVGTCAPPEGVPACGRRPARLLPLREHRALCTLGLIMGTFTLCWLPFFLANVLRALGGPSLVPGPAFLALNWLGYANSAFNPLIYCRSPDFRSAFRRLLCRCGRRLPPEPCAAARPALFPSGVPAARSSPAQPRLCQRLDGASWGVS
Format: cell-based
Design: key: fraction of maximal isoproterenol (10^-5 M) response
Procedure: Binding to the receptors was measured in Chinese Hamster ovary (CHO) cells that were transfected with adrenergic receptors.
The corresponding primer sequences are described in Mantzoros, C. […] The four fragments are ligated into a pUC 18 plasmid (Gibco-BRL) and sequenced.
CHO cells were grown in 24-well tissue culture plates in Dulbecco's Modified Eagle Media with 10% fetal bovine serum, MEM non-essential amino acids, Penicillin-Streptompycin and Geneticin. On the day of test procedure, growth medium was replaced with preincubation media (Dulbecco's Modified Eagle, Media) and incubated for 30 minutes at 37° C. […] Test compounds were tested over a concentration range of 10^−9 M to 10^−5 M for β3 cells and 10^−8 to 10^−4 M for β1 and β2 transfected cells. Isoproterenol (10^−5 M) was used as an internal standard for comparison of activity. Cells were incubated at 37° C. on a rocker for 30 min with the β3 cells and 15 min for β1 and β2 cells. Incubation was stopped with the addition of 0.2N HCl and neutralized with 2.5N NaOH. The plates, containing the cells and neutralized media, were stored at −20 degrees celsius until ready to test for cAMP using the SPA test kit (Amersham).
Data Analysis and Results: Data collected from the SPA test procedure were analyzed as percent of the maximal isoproterenol response at 10^−5 M. Activity curves were plotted using the SAS statistical and graphics software.

In order of rising “IA(β3)” value:
1. CC(=O)Nc1ccc(S(=O)(=O)Nc2ccccc2N2CCC(NCC(O)c3cccc(O)c3)CC2)cc1 (centres unmarked) [Example 264, N-(4-{[2-(4-{[2-Hydroxy-2-(3-hydroxyphenyl)ethyl]amino}-1-piperidinyl)anilino]-sulfonyl}phenyl)acetamide]  0.37
2. 5-[4-(4-{[4-(2S)-2-(3-Bromoisoxazol-5-yl)-2-hydroxyethyl]amino}piperidine-1-yl)benzyl]-1,3-thiazolidine-2,4-dione [Example 122]  0.46
3. CCOC(=O)c1ccc(N2CCC(NC[C@H](O)c3cccc(Cl)c3)CC2)cc1.Cl [Example 181, {4-[(2R)-2-(3-Chloro-phenyl)-2-hydroxy-ethylamino]-piperidin-1-yl}-benzoic acid ethyl ester hydrochloride]  0.56
4. CC(=O)Nc1ccc(S(=O)(=O)Nc2ccc(N3CCC(NC[C@H](O)COc4ccccc4)CC3)cc2)cc1 [Example 272, N-(4-{[4-(4-{[(2S)-2-Hydroxy-3-phenoxypropyl]amino}-1-piperidinyl)anilino]-sulfonyl}phenyl)acetamide]  0.57
5. O=c1[nH]c2cccc(OC[C@@H](O)CNC3CCN(c4ccc(NS(=O)(=O)c5ccc(-n6nnn(CCCC7CCCC7)c6=O)cc5)cc4)CC3)c2[nH]1 [Example 277]  0.58
6. COc1ccc(S(=O)(=O)Nc2ccc(N3CCC(NC[C@H](O)c4cccc(Cl)c4)CC3)cc2)cc1 [Example 260, N-[4-(4-{[(2R)-2-(3-Chlorophenyl)-2-hydroxyethyl]amino}-1-piperidinyl)phenyl]-4-methoxybenzenesulfonamide]  0.63
7. CC(=O)Nc1ccc(S(=O)(=O)Nc2ccc(N3CCC(NCC(O)c4ccc(O)cc4O)CC3)cc2)cc1 (centres unmarked) [Example 268, N-(4-{[4-(4-{[2-(2,4-Dihydroxyphenyl)-2-hydroxyethyl]amino}-1-piperidinyl)-anilino]sulfonyl}phenyl)acetamide]  0.64
8. CC(=O)Nc1ccc(S(=O)(=O)Nc2ccc(N3CCC(NC[C@H](O)c4ccccc4)CC3)cc2)cc1 [Example 258, N-(4-{4-[4-((2R)-2-Hydroxy-2-phenyl-ethylamino)-piperidin-1-yl]-phenylsulfamoyl}-phenyl)-acetamide]  0.7
9. COc1ccc(S(=O)(=O)Nc2ccc(N3CCC(NCC(O)c4ccccc4)CC3)cc2)cc1 (centres unmarked) [Example 255, N-{4-[4-(2-Hydroxy-2-phenyl-ethylamino)-piperidin-1-yl]-phenyl}-4-methoxy-benzenesulfonamide]  0.72
10. COc1ccc(S(=O)(=O)Nc2ccc(N3CCC(NC[C@H](O)c4ccccc4)CC3)cc2)cc1 [Example 261, N-[4-(4-{[(2R)-2-Hydroxy-2-phenylethyl]amino}-1-piperidinyl)phenyl]-4-methoxybenzenesulfonamide]  0.73
11. CCCCCCNC(=O)Nc1ccc(S(=O)(=O)Nc2ccc(N3CCC(NC[C@H](O)COc4cccc5[nH]c(=O)[nH]c45)CC3)cc2)cc1 [Example 275, 4-{[(Hexylamino)carbonyl]amino}-N-{4-[4-({(2S)-2-hydroxy-3-[(2-oxo-2,3-dihydro-1H-benzimidazol-4-yl)oxy]propyl}amino)-1-piperidinyl]phenyl}benzenesulfonamide]  0.73
12. CC(=O)Nc1ccc(S(=O)(=O)Nc2ccccc2N2CCC(NC[C@H](O)c3ccc(O)c(O)c3)CC2)cc1 [Example 265, N-(4-{[2-(4-{[(2R)-2-(3,4-Dihydroxyphenyl)-2-hydroxyethyl]amino}-1-piperidinyl)-anilino]sulfonyl}phenyl)acetamide]  0.8
13. CCCCCCNC(=O)Nc1ccc(S(=O)(=O)Nc2ccc(N3CCC(NCC(O)c4ccc(C)nc4)CC3)cc2)cc1 (centres unmarked) [Example 271, 4-{[(Hexylamino)carbonyl]amino}-N-[4-(4-{[2-hydroxy-2-(6-methyl-3-pyridinyl)ethyl]amino}-1-piperidinyl)phenyl]benzenesulfonamide]  0.84
14. COc1ccc(S(=O)(=O)Nc2ccc(N3CCC(NCC(O)c4cccc(O)c4)CC3)cc2)cc1 (centres unmarked) [Example 256, N-(4-{4-[2-Hydroxy-2-(3-hydroxy-phenyl)-ethylamino]-piperidin-1-yl}-phenyl)-4-methoxy-benzenesulfonamide]  0.85
15. COc1ccc(S(=O)(=O)Nc2ccc(N3CCC(NC[C@H](O)c4ccc(O)c(O)c4)CC3)cc2)cc1 [Example 266, N-[4-(4-{[(2R)-2-(3,4-Dihydroxyphenyl)-2-hydroxyethyl]amino}-1-piperidinyl)phenyl]-4-methoxybenzenesulfonamide]  0.86
16. CC(=O)Nc1ccc(S(=O)(=O)Nc2ccc(N3CCC(NCC(O)c4cccc(O)c4)CC3)cc2)cc1 (centres unmarked) [Example 257, N-[4-(4-{4-[2-Hydroxy-2-(3-hydroxy-phenyl)-ethylamino]-piperidin-1-yl}-phenylsulfamoyl)-phenyl]-acetamide]  0.88
17. CC(=O)Nc1ccc(S(=O)(=O)Nc2ccc(N3CCC(NC[C@H](O)c4ccc(O)c(O)c4)CC3)cc2)cc1 [Example 263, N-(4-{[4-(4-{[(2R)-2-(3,4-Dihydroxyphenyl)-2-hydroxyethyl]amino}-1-piperidinyl)anilino]sulfonyl}phenyl)acetamide]  0.93
18. CS(=O)(=O)Nc1cc([C@@H](O)CNC2CCN(c3ccc(C(=O)NCC(=O)O)cc3)CC2)ccc1O [Example 197, [(4-{4-[((2R)-2-Hydroxy-2-{4-hydroxy-3-[(methylsulfonyl)amino]phenyl}ethyl)amino]-1-piperidinyl}benzoyl)amino]acetic acid]  0.94
19. CC(=O)Nc1ccc(S(=O)(=O)Nc2ccc(N3CCC(NCC(O)c4ccc(O)cc4)CC3)cc2)cc1 (centres unmarked) [Example 259, N-(4-{[4-(4-{[2-Hydroxy-2-(4-hydroxyphenyl)ethyl]amino}-1-piperidinyl)-anilino]sulfonyl}phenyl)acetamide]  0.97
20. COc1cc(C(O)CNC2CCN(c3ccc(NS(=O)(=O)c4ccc(NC(C)=O)cc4)cc3)CC2)ccc1O (centres unmarked) [Example 267, N-(4-{[4-(4-{[2-Hydroxy-2-(4-hydroxy-3-methoxyphenyl)ethyl]amino}-1-piperidinyl)anilino]sulfonyl}phenyl)acetamide]  0.99
21. O=C1NC(=O)C(=Cc2ccc(N3CCC(NC[C@H](O)COc4cccc5[nH]c(=O)[nH]c45)CC3)c(Br)c2)S1 [Example 68, 5-(3-Bromo-4-{4-[(2S)-2-hydroxy-3-(2-oxo-2,3-dihydro-1H-benzoimidazol-4-yloxy)-propylamino]-piperidin-1-yl}-benzylidene)-thiazolidine-2,4-dione]  1
22. CC(C)C[C@H](NC(=O)c1ccc(N2CCC(NC[C@H](O)c3ccc(O)c(NS(C)(=O)=O)c3)CC2)cc1)C(=O)O [Example 199, (2S)-2-(4-{4-[(2R)-2-Hydroxy-2-(4-hydroxy-3-methanesulfonylamino-phenyl)-ethylamino]-piperidin-1-yl}-benzoylamino)-4-methyl-pentanoic acid]  1
23. CC(=O)Nc1ccc(S(=O)(=O)Nc2ccc(N3CCC(NCC(O)c4cc(C(N)=O)c5[nH]ccc5c4)CC3)cc2)cc1 (centres unmarked) [Example 273, 5-[2-({1-[4-({[4-(Acetylamino)phenyl]sulfonyl}amino)phenyl]-4-piperidinyl}amino)-1-hydroxyethyl]-1H-indole-7-carboxamide]  1.05
24. O=C1NC(=O)C(Cc2ccc(N3CCC(NC[C@H](O)COc4cccc5[nH]c(=O)[nH]c45)CC3)c(F)c2)S1 (stereo partly drawn) [Example 67, 5-(3-Fluoro-4-{4-[(2S)-2-hydroxy-3-(2-oxo-2,3-dihydro-1H-benzoimidazol-4-yloxy)-propylamino]-piperidin-1-yl}-benzyl)-thiazolidine-2,4-dione]  1.06
25. O=C1NC(=S)SC1=Cc1ccc(N2CCC(NC[C@H](O)COc3ccc(O)cc3)CC2)cc1 [Example 82, 5-(4-{4-[(2S)-2-Hydroxy-3-(4-hydroxy)-propylamino]-piperidin-1-yl}-benzylidene)-2-thioxo-thiazolidin-4-one]  1.07
26. CC(=O)Nc1ccc(S(=O)(=O)Nc2ccc(N3CCC(NCC(O)c4ccc(O)c(NS(C)(=O)=O)c4)CC3)cc2)cc1 (centres unmarked) [Example 270, N-{4-[(4-{4-[(2-Hydroxy-2-{4-hydroxy-3-[(methylsulfonyl)amino]phenyl}ethyl)amino]-1-piperidinyl}anilino)sulfonyl]phenyl}acetamide]  1.09
27. CC(C)[C@H](NC(=O)c1ccc(N2CCC(NC[C@H](O)c3ccc(O)c(NS(C)(=O)=O)c3)CC2)cc1)C(=O)O [Example 203, (2S)-2-(4-{4-[(2R)-2-Hydroxy-2-(4-hydroxy-3-methanesulfonylamino-phenyl)-ethylamino]-piperidin-1-yl}-benzoylamino)-3-methyl-butyric acid]  1.1
28. CCCCCCNC(=O)Nc1ccc(S(=O)(=O)Nc2ccc(N3CCC(NC[C@H](O)c4ccc(O)c(NS(C)(=O)=O)c4)CC3)cc2)cc1 [Example 276, 4-{[(Hexylamino)carbonyl]amino}-N-(4-{4-[((2R)-2-hydroxy-2-{4-hydroxy-3-[(methylsulfonyl)amino]phenyl}ethyl)amino]-1-piperidinyl}phenyl)benzenesulfonamide]  1.1
29. CC(=O)Nc1ccc(S(=O)(=O)Nc2ccc(N3CCC(NC[C@H](O)COc4cccc5[nH]c(=O)[nH]c45)CC3)cc2)cc1 [Example 274]  1.15
